This note sets out measurements from patent US6677368B2, “4-aryl substituted indolinones” (Sugen, Inc., priority 2000, dated 2004).

Holding throughout (assay type): biochemical
For experiment [1], the target named is T1, MET (Homo sapiens, UniProt P08581).
T1 construct: Purified GST fusion protein containing the Met kinase domain, SUGEN, Inc
The experiment in a line: MET transphosphorylation assay. To be noted: GST fusion protein containing the Met kinase domain, poly(glu-tyr) substrate. Here is the method: MET TRANSPHOSPHORYLATION ASSAY
This assay is used to measure phosphotyrosine levels on a poly(glutamic acid:tyrosine, 4:1) substrate as a means for identifying agonists/antagonists of met transphosphorylation of the substrate.
1. Corning 96-well ELISA plates, Corning Catalog #25805-96.
2. Poly(glu-tyr), 4:1, Sigma, Cat. No; P 0275.
5. Blocking Buffer: Dissolve 25 g Bovine Serum Albumin, Sigma Cat. No A-7888, in 500 ml PBS, filter through a […] filter.
6. Purified GST fusion protein containing the Met kinase domain, SUGEN, Inc.
8. 10% aqueous (MilliQue H2O) DMSO.
9. 10 mM aqueous (dH2O) Adenosine-5′-triphosphate, Sigma Cat. No. A-5394.
10. 2×Kinase Dilution Buffer: for 100 ml, mix 10 mL 1M HEPES at pH 7.5 with 0.4 mL 5% BSA/PBS, 0.2 mL 0.1 M sodium orthovanadate and 1 mL 5M sodium chloride in 88.4 mL dH2O.
11. 4×ATP Reaction Mixture: for 10 mL, mix 0.4 mL 1 M manganese chloride and 0.02 mL 0.1 M ATP in 9.56 mL dH2O.
12. 4×Negative Controls Mixture: for 10 mL, mix 0.4 mL 1 M manganese chloride in 9.6 mL dH2O.
13. NUNC 96-well V bottom polypropylene plates, Applied Scientific Catalog #S-72092
15. Antibody Dilution Buffer: for 100 mL, mix 10 mL 5% BSA/PBS, 0.5 mL 5% Carnation® Instant Milk in PBS and 0.1 mL 0.1 M sodium orthovanadate in 88.4 mL TBST.
16. Rabbit polyclonal antophosphotyrosine antibody, SUGEN, Inc.
17. Goat anti-rabbit horseradish peroxidase conjugated antibody, Biosource, Inc.
18. ABTS Solution: for 1 L, mix 19.21 g citric acid, 35.49 g Na2HPO4 and 500 mg ABTS with sufficient dH2O to make 1 L.
19. ABTS/H2O2: mix 15 mL ABST solution with 2μL H2O2 five minutes before use.
1. Coat ELISA plates with 2 μg Poly(Glu-Tyr) in 100 μL PBS, hold overnight at 4° C.
2. Block plate with 150 μL of 5% BSA/PBS for 60 min.
3. Wash plate twice with PBS then once with 50 mM Hepes buffer pH 7.4.
4. Add 50 μl of the diluted kinase to all wells. (Purified kinase is diluted with Kinase Dilution Buffer. Final concentration should be 10 ng/well.)
5. Add 25 μL of the test compound (in 4% DMSO) or DMSO alone (4% in dH2O) for controls to plate.
6. Incubate the kinase/compound mixture for 15 minutes.
7. Add 25 μL of 40 mM MnCl2 to the negative control wells.
8. Add 25 μL ATP/MnCl2 mixture to the all other wells (except the negative controls). Incubate for 5 min.
9. Add 25 μL 500 mM EDTA to stop reaction.
10. Wash plate 3× with TBST.
11. Add 100 μL rabbit polyclonal anti-Ptyr diluted 1:10,000 in Antibody Dilution Buffer to each well. Incubate, with shaking, at room temperature for one hour.
12. Wash plate 3× with TBST.
13. Dilute Biosource HRP conjugated anti-rabbit antibody 1:6,000 in Antibody Dilution buffer. Add 100 μL per well and incubate at room temperature, with shaking, for one hour.
14. Wash plate 1× with PBS.
15. Add 100 μl of ABTS/H2O2 solution to each well.
16. If necessary, stop the development reaction with the addition of 100 μl of 0.2M HCl per well.
17. Read plate on Dynatech MR7000 ELISA reader with the test filter at 410 nM and the reference filter at 630 nM.

Experiment [2] addresses T2, SRC (Homo sapiens, UniProt P12931).
T2 construct: purchased UBI 14-117
The experiment in a line: Src transphosphorylation assay. Particulars: recombinant human Src, poly(Glu-Tyr) substrate. The method, then: Src Transphosphorylation Assay
This assay is used to screen for inhibitors of the tyrosine kinase Src.
1. Coating buffer: PBS containing sodium azide (0.2 mg/ml).
3. Wash buffer: PBS containing 0.05% v/v Tween 20 (PBS-TWEEN)
5. ATP (40 [M)+MgCl2 (80 mM) in distilled water.
6. MgCl2 (80 mM) in distilled water (for no ATP blanks).
7. Test compounds, 10 mM in DMSO.
8. Assay Buffer: 100 mM HEPES, pH 7.4, containing 2 mM DTT, 0.2 mM sodium orthovanadate and 0.2 mgs/ml BSA.
9. Partially purified recombinant human Src (UBI (14-117)
10. Anti-phosphotyrosine (SUGEN rabbit polyclonal anti-PY).
11. HRP-linked goat anti-rabbit Ig (Biosource International #6430)
12. HRP substrate ABTS or Pierce Peroxidase substrate.
13. Corning ELISA plates.
1. Coat plates with 100 μl of 20 μg/ml poly(Glu-Tyr) (Sigma Cat. No.P0275) containing 0.01% sodium azide. Hold overnight at 4° C.
2. Block with 1% BSA at 100 μl/well for one hour at room temperature.
3. Plate test compounds (10 mM in DMSO) at 2 ul/well on a Costar plate ready for dilution with dH2O and plating to reaction plates.
4. Dilute Src kinase 1:10,000 in Reaction Buffer, for 5 plates prepare 25 ml as follows: 2.5 mls 1M HEPES pH7.4 (stored sterile at 4° C.), 21.85 ml distilled water, 0.1 ml 5% BSA, 0.5 ml 10 mM sodium orthovanadate (stored sterile at 4° C.), 50 μl 1.0M DTT (stored frozen at […]), and 2.5 μl Src Kinase (stored frozen at −80° C.).
5. Add 48 μl of distilled water to the 2 ∥l of each compound in the dilution plate then add 25 μl/well of this to the reaction plate.
6. Add 50 μl of […] to each reaction buffer well and then 25 μl ATP-MgCl2/well (MgCl2 only to no ATP blanks). Incubate at room temperature for 15 minutes on plate shaker. Stop reaction by adding 25 μl of 0.5M EDTA to each well.
7. Wash 4× with PBS-TWEEN.
8. […] Incubate with continuous shaking at room temperature for one hour.
9. Wash plates 4× with PBS-TWEEN.
10. Add 100 μl HPP-linked Ig (1:5,000) in PBS-TWEEN containing 0.5% BSA, 0.025% Non-fat milk powder, 100 μM sodium orthovanadate. Incubate with shaking at room temperature for one hour.
11. Wash plates 4× with PBS-TWEEN and then once with PBS.
12. Develop plate using ABTS or other peroxidase substrate.

The target in experiment [3] is P38 (Homo sapiens, UniProt Q16539). The experiment in a line: P38 kinase inhibition.
Sequence of P38 (Q16539 whole entry): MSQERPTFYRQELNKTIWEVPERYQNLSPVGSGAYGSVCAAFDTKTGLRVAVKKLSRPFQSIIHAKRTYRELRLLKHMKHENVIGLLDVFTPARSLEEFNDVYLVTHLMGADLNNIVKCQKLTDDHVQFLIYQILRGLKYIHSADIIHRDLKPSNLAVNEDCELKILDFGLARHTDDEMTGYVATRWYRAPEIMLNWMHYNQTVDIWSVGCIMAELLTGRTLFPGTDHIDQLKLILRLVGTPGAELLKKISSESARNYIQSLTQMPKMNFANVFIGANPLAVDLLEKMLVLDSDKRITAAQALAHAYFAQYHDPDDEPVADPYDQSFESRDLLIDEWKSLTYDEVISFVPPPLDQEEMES

T1 sequence (P08581 1078-1345 limits assumed): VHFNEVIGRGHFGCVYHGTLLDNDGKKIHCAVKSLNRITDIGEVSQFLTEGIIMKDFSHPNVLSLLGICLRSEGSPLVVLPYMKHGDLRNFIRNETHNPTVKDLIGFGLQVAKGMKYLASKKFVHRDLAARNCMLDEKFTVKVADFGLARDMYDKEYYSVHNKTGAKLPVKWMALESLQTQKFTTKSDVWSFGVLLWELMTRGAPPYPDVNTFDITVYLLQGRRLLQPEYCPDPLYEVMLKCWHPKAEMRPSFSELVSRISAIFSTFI
T2 sequence (P12931 whole entry): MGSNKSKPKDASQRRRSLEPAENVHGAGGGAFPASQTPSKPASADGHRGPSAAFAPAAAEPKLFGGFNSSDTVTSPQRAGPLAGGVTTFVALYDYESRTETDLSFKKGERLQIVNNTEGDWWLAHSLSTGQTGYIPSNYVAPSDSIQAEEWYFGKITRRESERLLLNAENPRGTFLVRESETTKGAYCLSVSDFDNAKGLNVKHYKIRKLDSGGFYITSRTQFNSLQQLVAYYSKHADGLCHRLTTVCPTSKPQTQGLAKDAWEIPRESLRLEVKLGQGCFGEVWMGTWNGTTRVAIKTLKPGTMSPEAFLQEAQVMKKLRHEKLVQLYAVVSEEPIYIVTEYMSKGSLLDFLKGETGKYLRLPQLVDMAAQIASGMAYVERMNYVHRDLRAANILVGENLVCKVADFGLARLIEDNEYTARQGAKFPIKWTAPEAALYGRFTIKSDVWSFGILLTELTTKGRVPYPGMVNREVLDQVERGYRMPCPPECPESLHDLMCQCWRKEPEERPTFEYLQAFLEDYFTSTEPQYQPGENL

On to `Cc1[nH]c(/C=C2\C(=O)Nc3cccc(-c4ccccc4F)c32)c(C)c1C(=O)N1CCN(C)CC1` [Example 93, 3-[3,5-Dimethyl-4-(4-methyl-piperazine-1-carbonyl)-1H-pyrrol-2-ylmethylene]-4-(2-fluoro-phenyl)-1,3-dihydro-indol-2-one], for which the half-maximal inhibitory concentration (IC50) (in general, the concentration that gives 50% inhibition) was 80 nM in experiment [1] and > 20000 nM in experiment [2].

As to `CCN(CC)CCNC(=O)c1c(C)[nH]c(/C=C2\C(=O)Nc3cccc(-c4ccccc4)c32)c1C` [Example 3, 2,4-Dimethyl-5-(2-oxo-4-phenyl-1,2-dihydro-indol-3-ylidenemethyl)-1H-pyrrole-3-carboxylic Acid (2-Diethylamino-ethyl)-amide], the half-inhibitory concentration (IC50) in experiment [1] is 78 nM; in experiment [3], > 10000 nM; in experiment [2] it was 1020 nM.

As to `Cc1cc(C(=O)NCCn2ccnn2)c(/C=C2\C(=O)Nc3cccc(-c4ccccc4F)c32)[nH]1` [Example 99, 2-[4-(2-Fluoro-phenyl)-2-oxo-1,2-dihydro-indol-3-ylidenemethyl]-5-methyl-1H-pyrrole-3-carboxylic Acid (2-[1,2,3]Triazol-1-yl-ethyl)-amide], the half-inhibitory concentration (IC50) was 180 nM in experiment [1] and > 20000 nM in experiment [2].

For `Cc1cc(C(=O)N2CC[C@H](N(C)C)C2)c(/C=C2\C(=O)Nc3cccc(-c4ccc(F)cc4)c32)[nH]1` [Example 10, 3-[3-((S)-3-Dimethylamino-pyrrolidine-1-carbonyl)-5-methyl-1H-pyrrol-2-ylmethylene]-4-(4-fluoro-phenyl)-1,3-dihydro-indol-2-one], the half-maximal inhibitory concentration (IC50) in experiment [1] is 230 nM; in experiment [3], > 10000 nM; in experiment [2] it was 1820 nM.

`CCN(CC)CCNC(=O)c1c(C)[nH]c(/C=C2\C(=O)Nc3cccc(-c4ccc(OC(F)(F)F)cc4)c32)c1C` [Example 140, 2,4-Dimethyl-5-[2-oxo-4-(4-trifluoromethoxy-phenyl)-1,2-dihydro-indol-3-ylidenemethyl]-1H-pyrrole-3-carboxylic Acid (2-Diethylamino-ethyl)-amide]: the IC50 in experiment [1] is 680 nM; in experiment [2] it was 4310 nM.

As for `Cc1[nH]c(/C=C2\C(=O)Nc3cccc(-c4cccc(C(F)(F)F)c4)c32)c(C)c1C(=O)N1CCN(C)CC1` [Example 104, 3-[3,5-Dimethyl-4-(4-methyl-piperazine-1-carbonyl)-H-pyrrol-2-ylmethylene]-4-(3-trifluoromethyl-phenyl)-1,3-dihydro-indol-2-one], the half-maximal inhibitory concentration (IC50) in experiment [1] stood at 580 nM; in experiment [2] it was 7090 nM.

Turning to `Cc1[nH]c(/C=C2\C(=O)Nc3cccc(-c4ccc(F)cc4)c32)c(C)c1C(=O)NCCN1CCCC1` [Example 6, 5-[4-(4-Fluoro-phenyl)-2-oxo-1,2-dihydro-indol-3-ylidenemethyl]-2,4-dimethyl-1H-pyrrole-3-carboxylic Acid (2-Pyrrolidin-1-yl-ethyl)-amide], the IC50 in experiment [1] is 73 nM; in experiment [3] it was > 10000 nM; in experiment [2], 4930 nM.

Take `Cc1cc(C(=O)NCCN2CCCC2)c(/C=C2\C(=O)Nc3cccc(-c4ccc(F)c(Cl)c4)c32)[nH]1` [Example 119, 2-[4-(3-Chloro-4-fluoro-phenyl)-2-oxo-1,2-dihydro-indol-3-ylidenemethyl]-5-methyl-1H-pyrrole-3-carboxylic Acid (2-Pyrrolidin-1-yl-ethyl)-amide]: the values for the IC50 in experiment [1] and in experiment [2] were 59 nM and 8610 nM, respectively.

Consider `Cc1[nH]c(/C=C2\C(=O)Nc3cccc(-c4ccc(F)cc4)c32)c(C)c1C(=O)N1CCN(C)CC1` [Example 4, 3-[3,5-Dimethyl-4-(4-methyl-piperazine-1-carbonyl)-1H-pyrrol-2-ylmethylene]-4-(4-fluoro-phenyl)-1,3-dihydro-indol-2-one], for which the IC50 in experiment [1] was 700 nM; in experiment [3] it was > 10000 nM; in experiment [2], > 20000 nM.
